Assay results published in PubChem BioAssay AID488823 (NMMLSC, 2010).

System: S. cerevisiae LAP4-GFP strain, flow cytometry fluorescence
Test: yeast LAP4 reporter analogs, concentration series – cell-based, cherry pick 3, flow cytometry, SAR follow-up (AID 488823)

Cc1ccc2c(Cl)cc(Cl)c(O)c2n1
EC50: 5.38 µM
